{"source": "patent US20130225483A1", "about": "“New Treatments of Hepatitis C Virus Infection” (priority 2010, published 2013)", "test_system": "HCV genotype 2 (GT2) and genotype 3 (GT3)", "assay": "Phase II clinical study: proportion of patients HCV RNA negative by LOQ", "assay_type": "in vivo", "details": "monotherapy arm (600 mg BID 1 week, then 1000 mg QD), 25 IU/mL", "protocol": "The efficacy of the therapy regimen may be monitored using standard protocols. Treatment may be followed by determinations of HCV in serum and measurement of serum ALT levels. For example, the patients may be assessed for the presence of HCV RNA in their plasma. HCV RNA (IU/mL) can be measured at regular intervals during the treatment, e.g., at Day 1 (pre-dose and 4, 8, and 12 hours post-dose) and pre-dose at Day 2, Day 3, Day 8, Day 15, Day 29, and at Week 12, Week 24, Week 36, Week 48, Week 72 (when applicable), and at follow up. In addition, the HCV strains in the patient can be sequenced and assessed for identification of mutations selecting for resistance.\nAs used herein, LOD means limit of detection (serum HCV RNA is less than 10 IU/mL) and LOQ means limit of quantification (serum HCV RNA is less than 25 IU/mL). HCV RNA levels can be measured using commercially available methods. […]", "data": [{"compound": "C/C=C/C[C@@H](C)[C@@H](O)[C@H]1C(=O)N[C@@H](CC)C(=O)N(C)[C@H](C)C(=O)N(CC)[C@@H](C(C)C)C(=O)N[C@@H](C(C)C)C(=O)N(C)[C@@H](CC(C)C)C(=O)N[C@@H](C)C(=O)N[C@H](C)C(=O)N(C)[C@@H](CC(C)C)C(=O)N(C)[C@@H](CC(C)C)C(=O)N(C)[C@@H](C(C)C)C(=O)N1C", "note": "[alisporivir, Alisporivir]", "values": [{"measurement": "patients achieved HCV RNA negative results (fraction in words)", "result": "one third"}]}]}
